Consider 82 compounds from the SangsterLogP compilation.

SMILES strings stand for the structures.

One data set can be described thus: method code SF, from DOI: 10.1002/qsar.19830020303.
Settings: not given
`Nc1ccc(Cl)nn1`: the logP (usually a log measure of how a compound divides between an organic and an aqueous phase) was 0.35.

The compound `Cc1cc(N)nc(C)n1` showed a log partition coefficient (logP) of 0.39.

The compound `NC(=S)c1ncccn1` came in with a logP of -0.34.

The compound `NS(=O)(=O)c1cccnc1` gave a logP of -0.49.

With `CC(=O)Nc1ncccn1`, the logP was -0.75.

Take `NS(=O)(=O)c1ccc2ncccc2c1`: the logP was determined as 0.56.

`NC(=S)c1cccnc1` yielded a logP of 0.67.

`NC(=O)c1ccc(Cl)nn1` came in with a logP of 0.

The compound `CN(C)c1ccc(Cl)nn1` displayed a logP of 0.98.

`CN(C)C(=O)c1cccnc1` registered a logP of -0.48.

For the compound `CSc1ccc2ccccc2n1`, the logP is 3.04.

For `CCOC(=O)c1ccc(Cl)nn1`, the logP was 0.12.

In turn, `CN(C)c1ccnnc1` returned a logP of -0.09.

`NNC(=O)c1ccc2ncccc2c1`: the logP is 0.35.

The compound `Cc1cc(N)ncn1` returned a log partition coefficient (logP) of 0.19.

The compound `NC(=O)c1ccncc1` returned a logP of -0.28.

The compound `CC(=O)Nc1ccncc1` gave a logP of 0.5.

The compound `COC(=O)c1cnccn1` returned a logP of -0.17.

`CS(=O)(=O)c1ccc2ncccc2c1` showed a logP of 0.7.

The compound `Cc1cc(NN)ncn1` returned a log partition coefficient (logP) of 0.62.

Turning to `CN(C)c1cccnn1`, the lipophilicity (logP) came out at 0.29.

The data set is the same for the next values; noted with them: pH 7.4.
For the compound `Oc1cnc2ccccc2c1`, the logD (usually lipophilicity at a set pH, counting ionised and neutral species) was found to be 2.08.

Experiment in another data set: not given
Settings: not given
On to `CNc1nc(-c2ccccc2)c2ccccc2n1`, for which the logP is 3.58.

The compound `CCOC(=O)c1ccc2ncccc2c1` showed a logP of 2.64.

The compound `Nc1cc2ccccc2nn1` gave a logP of 1.

`COc1cnnc2ccccc12` registered a logP of 1.41.

As for `COc1nc(-c2ccccc2)c2ccccc2n1`, the logP was 3.5.

Consider `CC(=O)c1cnc2ccccc2c1`, for which the logP was determined as 1.76.

With `NNc1ncnc2ccccc12`, the logP amounted to 1.67. The logP values of the last two compounds are within 0.2 log units of each other.

With `O=CNc1cccc2cccnc12`, the logP was 1.8.

In the case of `CC(=O)Nc1ccc2cccnc2c1`, the logP stood at 1.55.

Compound `CSc1ccccn1` came in with a logP of 1.71.

`O=Cc1ccc2ccccc2n1` showed a logP of 2.14.

Turning to `c1ccc2c(N3CCCCC3)ncnc2c1`, the logP was found to be 2.92.

In turn, `CCCCOc1cccnn1` registered a logP of 1.8.

In turn, `Nc1nc(-c2ccccc2)c2ccccc2n1` returned a lipophilicity (logP) of 2.95.

In turn, `O=[N+]([O-])c1cc2ccccc2nn1` had a logP of 0.73.

Regarding `NC(=O)c1cnc2ccccc2c1`, the logP came to 1.06.

In the case of `CC(C)(C)c1ccccn1`, the logP was 2.4.

On to `Nc1cnnc2ccccc12`, for which the logP worked out at 1.04.

`Cc1cnnc2cc(Cl)ccc12` registered a logP of 1.98.

`COc1cc(C)nc2ccccc12` gave a logP of 2.81.

`Ic1ccc2ccccc2n1` had a logP of 3.04.

On to `CN(C)C(=O)c1cnc2ccccc2c1`, for which the logP came to 0.99.

On to `CN(C)c1ccc(N(C)C)nn1`, for which the logP was 0.99.

In turn, `CSc1ccc(SC)nn1` gave a logP of 1.85.

`c1ccc(-c2ncnc3ccccc23)cc1` had a logP of 2.71.

`NC(=O)c1cnc2ccccc2n1` gave a logP of 0.98.

Regarding `COc1ncnc2ccccc12`, the logP came out at 1.97.

`COc1ccc(Cl)nn1` had a logP of 0.89.

On to `CC(=O)c1cc2ccccc2nn1`, for which the logP was found to be 1.44.

Compound `Nc1ncnc2ccccc12` had a logP of 1.28.

For the compound `O=C(c1ccccc1)c1ccccn1`, the logP worked out at 1.96.

`Nc1ccnc2c([N+](=O)[O-])cccc12` gave a logP of 1.31.

Turning to `Cc1nc(-c2ccccc2)c2ccccc2n1`, the logP is 3.1.

Regarding `c1ccc(Sc2cccnc2)cc1`, the logP came to 3.15.

In turn, `O=S(=O)(c1ccccc1)c1cccc2cccnc12` yielded a logP of 2.33.

In turn, `Cc1cccnc1` gave a logP of 1.19.

With `Cc1cnnc2ccc(Cl)cc12`, the logP was 1.96.

For the compound `CN(C)c1ccc2ccccc2n1`, the logP came to 2.81.

Regarding `Nc1nncc2ccccc12`, the logP came out at 0.82.

With `CN(C)c1ccccn1`, the logP amounted to 1.43.

As for `c1ccc(Oc2ccccn2)cc1`, the logP was 2.45.

In turn, `COc1nnc(OC)c2ccccc12` displayed a logP of 2.22.

In the case of `N#Cc1cnc2ccccc2c1`, the logP turned out to be 1.57.

In turn, `Clc1ccc2cncnc2c1` had a logP of 1.74.

For the compound `COC(=O)c1cnc2ccccc2c1`, the logP was found to be 2.25.

For `Brc1cc2ccccc2nn1`, the logP amounted to 1.72.

The compound `c1ccc(Nc2ccccn2)cc1` showed a logP of 2.75.

`Cc1cccc2c(N)cnnc12` returned a logP of 1.57.

Consider `N#Cc1ccc2ccccc2n1`, for which the logP worked out at 1.6.

`Clc1cc2ccccc2nn1` came in with a logP of 1.57.

Take `CN(C)c1nnc(-c2ccccc2)c2ccccc12`: the logP came to 3.22.

The compound `c1ccc(-c2nnco2)cc1` showed a logP of 1.31.

For the compound `CCOC(=O)c1cc2ccc(CC)cc2nn1`, the logP was 2.31.

On to `c1ccc2c(NC3CCCC3)ncnc2c1`, for which the logP was 2.61.

In the case of `c1ccc(-c2ncncn2)cc1`, the logP came to 1.93.

Turning to `COc1ccnc2c([N+](=O)[O-])cccc12`, the logP came to 1.92. The logP values of the last two compounds are within 0.2 log units of each other.

On to `CSc1nc(C)cc(C)n1`, for which the logP came to 1.86.

`CSc1ncc2ccccc2n1` yielded a logP of 2.5.

The compound `CCCOc1cncc(C)n1` gave a logP of 2.29.

A further data set in a line: method code SF-AS, from DOI: 10.1002/qsar.19830020303.
Settings: not given
Compound `Cc1cc(C)nc(C)c1` registered a logP of 2.01.
